From PMC2855520, “Anti-infective activity of apolipoprotein domain derived peptides in vitro: identification of novel antimicrobial peptides related to apolipoprotein B with anti-HIV activity” (BMC Immunology, 2010)
Read-outs that look alike come from different tables or passages of the source. No end group written: not given here.

How the values were obtained:
HSV1 [1] = test system: HSV1
[2] = test system: Pseudomonas aeruginosa (ATCC 9027)
Description: (§1) A microdilution method was used [8]: paired dilutions of compounds in LB broth, arranged in 96-well plates were inoculated with around 1 × 10^5 CFU Pseudomonas aeruginosa (ATCC 9027) or Staphylococcus aureus (ATCC 6538P). After overnight incubation at 37C, absorbance at 620 nm (A620) was assessed, and the IC50 concentrations determined.

[3] = test system: Staphylococcus aureus (ATCC 6538P)
Description: as §1

human red blood cells [4] = test system: human red blood cells; set-up: method as in PMID 17681018; settings: cited from earlier work
TZMbl cells = format: cell-based
Description: Cytotoxicity assessment - Vero cells growing in 96-well plates were treated with various peptide concentrations. After 48 h incubation, 25 μl 3-(4,5-dimethylthiazol-2-yl)-2,5-diphenyltetrazolium bromide (MTT) in 0.5% medium was added (1 mg/ml final concentration), and cells incubated for 2 h. Growth medium was then carefully removed and formazan crystals solubilised in […] of DMSO, prior to reading absorbance at 570 nm (A570). TZMbl cytotoxicity was assessed using the WST-1 cell proliferation reagent (Roche). Experiments were performed as for the anti-infectivity assay, WST-1 was diluted 1/10 into each well at various time points and cell proliferation was measured by absorbance at 450 nm.

human red blood cells [5] = format: cell-based
Description: Freshly washed human red blood cells were added to peptides diluted in PBS in 96-well plates (20 × 10^6 red blood cells were added per well). After 2 h incubation at 37°C, plates were centrifuged (3000 g, 5 min) and 80 μl of supernatant transferred to further 96-well plates containing 0.75% ammonium hydroxide in distilled water.

HSV1 [6] = settings: earlier reports, organism not specified at this place; ref [9]; cited from earlier work
Text: In the second group of peptides, apoEdp - used as a positive control - was active against all three organisms, as found in our previous studies.

[7] = read-out: IC50 Concentration (μM) HSV1, plaque reduction assay, Vero cells, 90 PFU/well, peptide present 1 h, plaques counted after 2 d, averages for several experiments
[8] = read-out: IC50 Concentration (μM) P. aeruginosa, turbidity (A620) of serial dilutions in LB broth, ~1 × 10^5 CFU, overnight 37C, averages for several experiments
[9] = read-out: IC50 Concentration (μM) S. aureus, turbidity (A620) of serial dilutions in LB broth, ~1 × 10^5 CFU, overnight 37C, averages for several experiments

With ARLAEYHAKATEHLSTLSEKAK [apoA1-H8] the IC50 (HSV1 [1]; [7]) was greater than 40 µM, the IC50 [2, 8] was greater than 54 µM and the IC50 [3, 9] was greater than 54 µM.

Substance CKNKEKKCCKNKEKKC [apoH(281-288)dp] has an IC50 (HSV1 [1]; [7]) greater than 40 µM, an IC50 [2, 8] greater than 54 µM and an IC50 [3, 9] greater than 54 µM.

For “DWLKAFYDKVAEKLKEAF [apoA1-18A, reference compound]”, the IC50 (HSV1 [1]; read-out: IC50 concentration against HSV1, plaque reduction assay, 95%CI 31.9 - 41.1 μM) was 36.5 µM.

GERLRARMEGERLRARME [apoE(211-219)dp] showed an IC50 (HSV1 [1]; 1 h) greater than 40 µM, an IC50 [2, 8] greater than 54 µM and an IC50 [3, 9] greater than 54 µM.

With HMLDVMQDHFSRASSIIDEL [apoJ151-170] the IC50 (HSV1 [1]; 1 h) was greater than 40 µM, the IC50 [2, 8] was greater than 54 µM and the IC50 [3, 9] was greater than 54 µM.

With KFMETVAEKALQEYRK [apoJ409-424] the IC50 (HSV1 [1]; [7]) was greater than 40 µM, the IC50 [2, 8] was greater than 54 µM and the IC50 [3, 9] was greater than 54 µM.

With LQVAERLTRKYNELLKSYQ [apoJ311-329] the IC50 (HSV1 [1]; [7]) was greater than 40 µM, the IC50 [2, 8] was greater than 54 µM and the IC50 [3, 9] was greater than 54 µM.

“LRKLRKRLLLRKLRKRLL-NH2 [apoE(141-149)dp, reference compound]” showed an IC50 (HSV1 [1]; 1 h) of 16.5 µM, an IC50 ([2]; ATCC 9027) of 2.5 µM and an IC50 ([3]; ATCC 6538) of 9 µM. The haemolytic activity (human red blood cells [4]) was “non-haemolytic”.

With LRKLRKRLLRDADDLQKRLA [apoE141-162] the IC50 (HSV1 [1]; 1 h) was greater than 40 µM, the IC50 [2, 8] was greater than 54 µM and the IC50 [3, 9] was greater than 54 µM.

For NFHAMFQPFLEMIHEAQQ [apoJ219-236], the IC50 (HSV1 [1]; [7]) was greater than 40 µM, the IC50 [2, 8] was greater than 54 µM and the IC50 [3, 9] was greater than 54 µM.

With PLGEEMRDRARAHVDALRTHLA [apoA1-H6] the IC50 (HSV1 [1]; [7]) was greater than 40 µM, the IC50 [2, 8] was greater than 54 µM and the IC50 [3, 9] was greater than 54 µM.

With “PVLDEFREKLNEELEALKQKMK [apoA1-consensus]” the IC50 (HSV1 [1]; [7]) was greater than 40 µM, the IC50 [2, 8] was greater than 54 µM and the IC50 [3, 9] was greater than 54 µM.

Work on PYLDDFQKKWQEEMELYRQKVE [apoA1-H4] yielded an IC50 (HSV1 [1]; [7]) greater than 40 µM, an IC50 [2, 8] greater than 54 µM and an IC50 [3, 9] greater than 54 µM.

PYSDELRQRLAARLEALKENGG [apoA1-H7] gave an IC50 (HSV1 [1]; [7]) greater than 40 µM, an IC50 [2, 8] greater than 54 µM and an IC50 [3, 9] greater than 54 µM.

In the case of RALVDTLKFVTQAEGAK [apoB1000-1016], the “antiviral activity against HSV1 (in words)” value (HSV1 [1]; plaque reduction assay in Vero cells) is reported as “inactive”, the IC50 (HSV1 [1]; [7]) is reported as greater than 40 µM and the IC50 [2, 8] is reported as greater than 54 µM. For the same substance, the IC50 [3, 9] was greater than 54 µM.

For RDADDLQKRRDADDLQKR [apoE(150-158)dp], the IC50 (HSV1 [1]; 1 h) was greater than 40 µM, the IC50 [2, 8] was greater than 54 µM and the IC50 [3, 9] was greater than 54 µM.

RLRARMEEMRLRARMEEM [apoE(213-221)dp] gave an IC50 (HSV1 [1]; 1 h) greater than 40 µM, an IC50 [2, 8] greater than 54 µM and an IC50 [3, 9] greater than 54 µM.

In the case of RLTRKRGLKRLTRKRGLK [apoB(3359-3367)dp], the IC50 (HSV1 [1]; 1 h) is reported as greater than 40 µM, the IC50 [2, 8] is reported as greater than 54 µM and the IC50 [3, 9] is reported as greater than 54 µM.

VTDYGKDLMEKVKEWLNS [apoAII 18-30+] gave an IC50 (HSV1 [1]; [7]) greater than 40 µM, an IC50 [2, 8] greater than 54 µM and an IC50 [3, 9] greater than 54 µM.

VTDYGKDLMEKVKSPELQ [apoAII 18-35] gave an IC50 (HSV1 [1]; [7]) greater than 40 µM, an IC50 [2, 8] greater than 54 µM and an IC50 [3, 9] greater than 54 µM.

For WRWRKRWRKWRWRKRWRK [apoBdpL/R-W], the “toxicity against TZMbl cells” value (TZMbl cells) was “no detectable toxicity” and the haemolytic activity (human red blood cells [5]) was “non-haemolytic”.

For “apoE(141-149): nonomer peptide of the apoE receptor binding region (LRKLRKRLL; UniProt P02649 159-167, looked up, fragment)”, the “anti-infective activity (in words)” value (HSV1 [6]) is given as “inactive”.
